According to patent US8716281B2, “Pyrimidine compounds that inhibit anaplastic lymphoma kinase” (Amgen Inc., priority 2010, dated 2014):

These compounds were tested against T1, wild-type human ALK cytoplasmic domain (amino acids 1058-1620) (Homo sapiens, UniProt Q9UM73) (assay: ALK Inhibition in Enzyme Assay (Lance TR-FRET)). Settings: 2 nM enzyme, ATP at 40 μM (Km apparent), 90 minutes, mean of three replicates; read-out: ALK IC50.
T1 construct: The cytoplasmic domain (amino acids 1058-1620) of wild-type human ALK; GST (N); made in house; host or cells: SF9 insect cells
T1 sequence (Q9UM73 1058-1620): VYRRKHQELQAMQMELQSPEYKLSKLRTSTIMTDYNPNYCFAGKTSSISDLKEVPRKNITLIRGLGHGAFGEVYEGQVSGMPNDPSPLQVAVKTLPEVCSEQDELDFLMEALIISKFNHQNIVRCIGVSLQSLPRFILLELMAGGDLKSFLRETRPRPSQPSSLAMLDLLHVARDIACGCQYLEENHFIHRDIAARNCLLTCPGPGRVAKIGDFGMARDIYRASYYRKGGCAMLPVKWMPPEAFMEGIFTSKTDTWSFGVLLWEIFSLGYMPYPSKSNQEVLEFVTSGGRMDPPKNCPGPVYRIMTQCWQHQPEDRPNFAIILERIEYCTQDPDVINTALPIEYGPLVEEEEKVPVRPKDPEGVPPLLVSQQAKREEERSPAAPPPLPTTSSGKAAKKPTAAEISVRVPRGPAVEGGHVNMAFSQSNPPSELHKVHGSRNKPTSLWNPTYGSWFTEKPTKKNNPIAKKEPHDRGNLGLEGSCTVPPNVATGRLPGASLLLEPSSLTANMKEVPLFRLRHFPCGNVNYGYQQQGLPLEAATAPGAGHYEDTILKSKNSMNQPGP
Format: biochemical
Method in brief: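 Purified enzyme phosphorylated a biotinylated peptide substrate for 90 minutes at room temperature. Reactions were stopped with 20 mM EDTA in 50 mM Tris (pH 7.5), 100 mM NaCl, 0.05% BSA, 0.1% Tween-20. Phosphopeptide was detected by TR-FRET with SA-APC and Eu-W1024 anti-phosphotyrosine antibody PT66, excitation 320 nm.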

Structure (SMILES) | IC50
COc1cc(Nc2nccc(N3CCC[C@H](C(=O)NCCc4ccccc4Cl)C3)n2)cc(OC)c1OC [Example 99, (S)-N-(2-(2-chlorophenyl)ethyl)-1-(2-((3,4,5-trimethoxyphenyl)amino)-4-pyrimidinyl)-3-piperidinecarboxamide] | 1000 to 5000 nM
COc1cc(Nc2nccc(N3CCC[C@H](C(=O)NCCc4ccc(F)cc4)C3)n2)cc(OC)c1OC [Example 100, (S)-N-(2-(4-fluorophenyl)ethyl)-1-(2-((3,4,5-trimethoxyphenyl)amino)-4-pyrimidinyl)-3-piperidinecarboxamide] | 100 to 1000 nM
COc1cc(Nc2nccc(N3CCC[C@H](C(=O)NC[C@H](C)c4ccccc4)C3)n2)cc(OC)c1OC [Example 101, (S)-N-((R)-2-phenylpropyl)-1-(2-((3,4,5-trimethoxyphenyl)amino)-4-pyrimidinyl)-3-piperidinecarboxamide] | 1000 to 5000 nM
COc1cc(Nc2nccc(N3CCC[C@H](C(=O)NCCc4ccccc4F)C3)n2)cc(OC)c1OC [Example 102, (S)-N-(2-(2-fluorophenyl)ethyl)-1-(2-((3,4,5-trimethoxyphenyl)amino)-4-pyrimidinyl)-3-piperidinecarboxamide] | 100 to 1000 nM
COc1cc(Nc2nccc(N3CCC[C@H](C(=O)NCc4cccc(F)c4)C3)n2)cc(OC)c1OC [Example 104, (S)-N-(3-fluorobenzyl)-1-(2-((3,4,5-trimethoxyphenyl)amino)-4-pyrimidinyl)-3-piperidinecarboxamide] | 100 to 1000 nM
COc1cc(Nc2nccc(N3CCC[C@H](C(=O)NCc4cccc(Oc5ccc(Cl)cc5)c4)C3)n2)cc(OC)c1OC [Example 105, (S)-N-(3-(4-chlorophenoxy)benzyl)-1-(2-((3,4,5-trimethoxyphenyl)amino)-4-pyrimidinyl)-3-piperidinecarboxamide] | 1000 to 5000 nM
COc1cc(Nc2nccc(N3CCC[C@H](C(=O)NCc4cccc(-c5ccc(Cl)cc5)c4)C3)n2)cc(OC)c1OC [Example 106, (S)-N-((4′-chloro-3-biphenylyl)methyl)-1-(2-((3,4,5-trimethoxyphenyl)amino)-4-pyrimidinyl)-3-piperidinecarboxamide] | < 50 nM
COc1cc(Nc2nccc(N3CCC[C@H](C(=O)NCc4cccc(-c5ccc(F)cc5)c4)C3)n2)cc(OC)c1OC [Example 108, (S)-N-((4′-fluoro-3-biphenylyl)methyl)-1-(2-((3,4,5-trimethoxyphenyl)amino)-4-pyrimidinyl)-3-piperidinecarboxamide] | < 50 nM
CCOC(=O)C(C)Cc1cccc(CNC(=O)[C@H]2CCCN(c3ccnc(Nc4cc(OC)c(OC)c(OC)c4)n3)C2)c1 (stereo partly drawn) [Example 109, ethyl 2-methyl-3-(3-(((((S)-1-(2-((3,4,5-trimethoxyphenyl)amino)-4-pyrimidinyl)-3-piperidinyl)carbonyl)amino)methyl)phenyl)propanoate] | 100 to 1000 nM
COc1cc(Nc2nccc(N3CCC[C@H](C(=O)NCc4cccc(-n5cccc5)c4)C3)n2)cc(OC)c1OC [Example 110, (S)-N-(3-(1H-pyrrol-1-yl)benzyl)-1-(2-((3,4,5-trimethoxyphenyl)amino)-4-pyrimidinyl)-3-piperidinecarboxamide] | < 50 nM
COc1cc(Nc2nccc(N3CCC[C@H](C(=O)NCc4cccc(-n5cccn5)c4)C3)n2)cc(OC)c1OC [Example 111, (S)-N-(3-(1H-pyrazol-1-yl)benzyl)-1-(2-((3,4,5-trimethoxyphenyl)amino)-4-pyrimidinyl)-3-piperidinecarboxamide] | 100 to 1000 nM

Further lines, results first:

IC50 | Structure (SMILES)
< 50 nM | COc1cc(Nc2nccc(N3CCC[C@H](C(=O)NCc4cccc(Br)c4)C3)n2)cc(OC)c1OC [Example 113, (S)-N-(3-bromobenzyl)-1-(2-((3,4,5-trimethoxyphenyl)amino)-4-pyrimidinyl)-3-piperidinecarboxamide]
1000 to 5000 nM | COc1cc(Nc2nccc(N3CCC[C@H](C(=O)NCc4cccc(Oc5ccc(C)cc5)c4)C3)n2)cc(OC)c1OC [Example 114, (S)-N-(3-(4-methylphenoxy)benzyl)-1-(2-((3,4,5-trimethoxyphenyl)amino)-4-pyrimidinyl)-3-piperidinecarboxamide]
100 to 1000 nM | COc1cc(Nc2nccc(N3CCC[C@H](C(=O)NCc4ccc(C#N)cc4)C3)n2)cc(OC)c1OC [Example 115, (S)-N-(4-cyanobenzyl)-1-(2-((3,4,5-trimethoxyphenyl)amino)-4-pyrimidinyl)-3-piperidinecarboxamide]
50 to 100 nM | COc1cc(Nc2nccc(N3CCC[C@H](C(=O)NCc4ccc(Oc5ccccc5)cc4)C3)n2)cc(OC)c1OC [Example 116, (S)-N-(4-phenoxybenzyl)-1-(2-((3,4,5-trimethoxyphenyl)amino)-4-pyrimidinyl)-3-piperidinecarboxamide]
< 50 nM | COc1cc(Nc2nccc(N3CCC[C@H](C(=O)NCc4ccc(C(C)C)cc4)C3)n2)cc(OC)c1OC [Example 117, (S)-N-(4-(1-methylethyl)benzyl)-1-(2-((3,4,5-trimethoxyphenyl)amino)-4-pyrimidinyl)-3-piperidinecarboxamide]
100 to 1000 nM | COc1cc(Nc2nccc(N3CCC[C@H](C(=O)NCc4ccc(Oc5ccc(Cl)cc5)cc4)C3)n2)cc(OC)c1OC [Example 118, (S)-N-(4-(4-chlorophenoxy)benzyl)-1-(2-((3,4,5-trimethoxyphenyl)amino)-4-pyrimidinyl)-3-piperidinecarboxamide]
100 to 1000 nM | COc1cc(Nc2nccc(N3CCC[C@H](C(=O)NCc4ccc(Oc5ccc(C)cc5)cc4)C3)n2)cc(OC)c1OC [Example 119, (S)-N-(4-(4-methylphenoxy)benzyl)-1-(2-((3,4,5-trimethoxyphenyl)amino)-4-pyrimidinyl)-3-piperidinecarboxamide]
1000 to 5000 nM | COc1cc(Nc2nccc(N3CCC[C@H](C(=O)NCc4ccc(-c5cc(Cl)cc(Cl)c5)cc4)C3)n2)cc(OC)c1OC [Example 120, (S)-N-((3′,5′-dichloro-4-biphenylyl)methyl)-1-(2-((3,4,5-trimethoxyphenyl)amino)-4-pyrimidinyl)-3-piperidinecarboxamide]
100 to 1000 nM | COc1cc(Nc2nccc(N3CCC[C@H](C(=O)NCc4ccc(-c5ccccc5Cl)cc4)C3)n2)cc(OC)c1OC [Example 121, (S)-N-((2′-chloro-4-biphenylyl)methyl)-1-(2-((3,4,5-trimethoxyphenyl)amino)-4-pyrimidinyl)-3-piperidinecarboxamide]
1000 to 5000 nM | COc1cc(Nc2nccc(N3CCC[C@H](C(=O)NCc4ccc(S(C)(=O)=O)cc4)C3)n2)cc(OC)c1OC [Example 122, (S)-N-(4-(methylsulfonyl)benzyl)-1-(2-((3,4,5-trimethoxyphenyl)amino)-4-pyrimidinyl)-3-piperidinecarboxamide]
100 to 1000 nM | COc1cc(Nc2nccc(N3CCC[C@H](C(=O)NCc4ccc(-c5ccc(F)cc5)cc4)C3)n2)cc(OC)c1OC [Example 123, (S)-N-((4′-fluoro-4-biphenylyl)methyl)-1-(2-((3,4,5-trimethoxyphenyl)amino)-4-pyrimidinyl)-3-piperidinecarboxamide]
1000 to 5000 nM | COc1cc(Nc2nccc(N3CCC[C@H](C(=O)NCc4ccc(NC(C)=O)cc4)C3)n2)cc(OC)c1OC [Example 124, (S)-N-(4-(acetylamino)benzyl)-1-(2-((3,4,5-trimethoxyphenyl)amino)-4-pyrimidinyl)-3-piperidinecarboxamide]
